From US11312695B2, “Nutrients to enhance load-induced muscle hypertrophy” (The Regents of the University of California, priority 2020, dated 2022)

Target: T1, purified human SIRT1 (Homo sapiens, UniProt Q96EB6)
T1 sequence (Q96EB6 1-747): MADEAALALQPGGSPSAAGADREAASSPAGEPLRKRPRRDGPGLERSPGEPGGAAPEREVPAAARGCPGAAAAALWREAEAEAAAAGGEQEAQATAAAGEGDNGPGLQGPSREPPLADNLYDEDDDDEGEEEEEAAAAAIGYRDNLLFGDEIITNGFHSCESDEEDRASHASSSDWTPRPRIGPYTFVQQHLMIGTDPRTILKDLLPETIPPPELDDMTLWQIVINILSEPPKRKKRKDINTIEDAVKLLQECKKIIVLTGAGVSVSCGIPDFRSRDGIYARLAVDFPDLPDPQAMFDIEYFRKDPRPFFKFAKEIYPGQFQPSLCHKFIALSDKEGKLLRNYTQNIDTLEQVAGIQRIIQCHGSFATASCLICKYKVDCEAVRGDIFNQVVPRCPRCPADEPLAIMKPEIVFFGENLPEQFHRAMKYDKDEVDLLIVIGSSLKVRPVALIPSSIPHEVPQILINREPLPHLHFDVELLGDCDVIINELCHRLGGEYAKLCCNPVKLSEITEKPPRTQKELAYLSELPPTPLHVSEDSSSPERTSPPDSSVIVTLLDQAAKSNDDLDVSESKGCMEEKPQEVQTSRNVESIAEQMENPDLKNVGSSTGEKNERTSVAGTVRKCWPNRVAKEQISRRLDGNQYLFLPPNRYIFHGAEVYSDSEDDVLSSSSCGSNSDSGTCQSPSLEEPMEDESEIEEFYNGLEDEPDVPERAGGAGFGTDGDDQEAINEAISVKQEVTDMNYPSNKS
Assay: SIRT1 inhibitor screen (mobility shift assay, p53 substrate)
Type: biochemical
Details: 2 ng/μl SIRT1, 3 μM p53 substrate; for inhibition at 5 µM / percent inhibition of SIRT1 at 5 μM: 5 μM compound; for inhibition at 5 µM: read-out: percent inhibition of SIRT1 at 5 μM; for inhibition at 50 µM / percent inhibition of SIRT1 at 50 μM: 50 μM compound; for inhibition at 50 µM: read-out: percent inhibition of SIRT1 at 50 μM
Description: The NatProd Collection library (MicroSource Discovery Systems, Inc. Gaylordsville, Conn.) in ten source plates was screened at two doses (50 μM and 5 μM final in the reaction mixture, duplicate for each dose). The inhibitory activity of the compounds was assessed against 2 ng/μ1 purified human SIRT1 using 3 μM p53 as a substrate. The assay was a mobility shift assay based on charge differences before and after electrophoretic separation of product from fluorescently labeled substrate read using a Caliper EZ Reader (Perkin Elmer, Boston, Mass.). All reactions took place in the presence of excess nicotinamide adenine dinucleotide and the known SIRT1 inhibitor suramin was used as a control.

`CC1=C(O)C(=O)C=C2C1=CC=C1[C@@]2(C)CC[C@@]2(C)[C@@H]3C[C@](C)(C(=O)O)CC[C@]3(C)CC[C@]12C` [Celastrol] showed an inhibition at 5 µM of 101% and an inhibition at 50 µM of 100%.

In the case of `Cc1c(O)c(O)cc2c1CC=C1[C@@]2(C)CC[C@@]2(C)[C@@H]3C[C@](C)(C(=O)O)CC[C@]3(C)CC[C@]12C` [Dihydrocelastrol], the inhibition at 5 µM is reported as 84% and the inhibition at 50 µM is reported as 99%.

For `O=C(O[C@@H]1Cc2c(O)cc(O)cc2O[C@@H]1c1ccc(O)c(O)c1)c1cc(O)c(O)c(O)c1` [Epicatechin monogallate], the “percent inhibition of SIRT1 at 5 μM” value was 66 and the “percent inhibition of SIRT1 at 50 μM” value was 99.

In the case of `O=C(O[C@@H]1Cc2c(O)cc(O)cc2O[C@@H]1c1cc(O)c(O)c(O)c1)c1cc(O)c(O)c(O)c1` [Epigallocatechin-3-monogallate], the “percent inhibition of SIRT1 at 5 μM” value is reported as 72 and the “percent inhibition of SIRT1 at 50 μM” value is reported as 99.
